Test results from US20260219274A1, “POLYOL SWEETNERS AND CARDIOVASCULAR AND THROMBOTIC EVENT RISK” (THE CLEVELAND CLINIC FOUNDATION, priority 2023, published 2026).

Assays:
[1] = Erythritol intervention study (COSETTE): postprandial plasma erythritol levels; format: in vivo, human; conditions: for hours after ingestion of 30 g
Protocol: In a fourth study, the first phase of the Erythritol Intervention Study (COSETTE, clinicaltrials.gov number: NCT04731363), prospectively recruited healthy volunteers ingested a standard-size artificially sweetened beverage (300 mL) containing 30 g of erythritol with instructions to consume the drink within 2 minutes, and blood samples were collected at scheduled post-prandial time points for crythritol measurement. For each participant in the erythritol intervention study (n=8), baseline blood samples were first obtained after overnight (≥8 hours) fasting. […] Therefore, participants were given 30 g erythritol dissolved in 300 mL water. Serial venous blood sampling was performed up to 7d after baseline. […]
Stable-isotope-dilution LC/MS/MS was used for quantification of erythritol, threitol, and 1,5-AHG in human and mouse plasma. […] Limit of detection (LOD) and limit of quantification (LOQ) were as follow: threitol:0.048 and 0.160 μM; erythritol: 0.026 and 0.089 μM; 1,5-AHG: […]; respectively. Three quality control samples were run with each batch of samples and inter-batch variations expressed as coefficient of variation (CV) were less than 7% for all analytes monitored. Data were collected and analyzed by LabSolution 5.91 software (Shimadzu).

[2] = system: platelets of healthy volunteers; assay: Erythritol or glucose ingestion: platelet aggregation and granule release; format: in vivo, human
Protocol: This single center trial was approved by the Cleveland Clinic Institutional Review Board (clinicaltrials.gov identifier NCT04731363). Following subject consent (nonsmokers without CVD, hypertension, or diabetes), blood was drawn after overnight fast and 30 min following consumption of water containing 30 g of […] glucose (n=10, 30.1±11 years of age, 40% male), or erythritol (n=10, 30.5±8 years of age, 50% male), a quantity commonly found in erythritol-sweetened foods and the daily intake of some subjects based on 2013-2014 National Health and Nutrition Examination Survey (NHANES) data and FDA filings.(4,5).
Following erythritol consumption, postprandial circulating erythritol levels (assessed using stable-isotope-dilution liquid-chromatography tandem mass spectrometry (LC/MS/MS)3) were >1000-fold increased compared to baseline levels (median[inter quartile range], 6480[5930-7300]μM versus 3.75[3.35-3.87]μM, P<0.0001). In contrast, circulating erythritol levels remained similar before versus after glucose consumption (3.0[2.6-4.0]μM versus 2.9[2.7-3.8]μM, P=0.87; glucose levels before versus after 86.5(81.8-93.0) versus 127.0(122.3-132.3), P=0.002). […] In contrast, glucose consumption had no effect on platelet aggregation.

dogs = conditions: dog, in vivo; cited from earlier work

Structure (SMILES) | elevation of plasma erythritol over baseline [1] [fold] | platelet aggregation responses to ADP and TRAP6 after ingestion ([2]; 30 min after 30 g vs baseline) | stimulus-dependent release of alpha granule marker CXCL4 ([2]; TRAP6 (7.5 μM), ADP (2.0 μM), after ingestion) | stimulus-dependent release of dense granule marker serotonin ([2]; TRAP6 and ADP, after ingestion) | toxicity to dogs (dogs)
OC[C@@H](O)[C@@H](O)CO [erythritol] | 1000 | striking increase | markedly enhanced | markedly enhanced | –
OC[C@@H](O)[C@H](O)[C@@H](O)CO [xylitol] | – | – | – | – | highly toxic
